≈ marks a conversion by molar mass, not a printed value.
Assays:
Experiment in all cases: In vitro antibacterial MIC/MBC test
Assay type in all cases: cell-based
S. pyogenes 7948-15 = details: Streptococcus pyogenes, 794815, S. pyogenes 7948-15; for MBC: read-out: MBC; for MIC: read-out: MIC
Method: (§1) Win 52,522 and Win 35,439 were solubilized in 0.1 ml of 0.5 N NaOH/mg of compound and diluted in sterile distilled water to 160 mcg/ml. Vancomycin and methicillin were solubilized in sterile distilled water to 1250 mcg/ml of base compound. The stock solutions were sterilized by filtration through membrane filters with a 0.45 μm pore size.
(§2) The bacterial cultures listed in Table I (hereinbelow) were grown overnight at 37° C. in MHB for all cultures except the Streptococcus strains. These were grown in BHI+10% NHS. The overnight broth cultures were adjusted to an optical density of 0.10 (650 nm, B L Spectronic 20) in sterile distilled water and subsequently diluted to 6.7×10^6 cells/ml in MHB or BHI+1% NHS.
(§3) Serial two-fold dilutions of the compound solutions were prepared in MHB (or in BHI+1% NHS for tests with Streptococci) and dispensed into 96-well microtiter trays in a volume of 0.1 ml/well using a Sandy Springs (Bellco Glass Co.) dispenser. The trays were then inoculated with 0.0015 ml of a suspension containing 6.7×10^6 cells/ml of the appropriate inoculum using a MIC-2000 inoculator (Dynatech Corp.) resulting in a final inoculum of approximately 1×10^4 cells/well or 1×10^5 cells/ml. The trays were incubated at 37° C. for 18-20 hours and the minimal inhibitory concentration (MIC), defined as the lowest concentration of compound to inhibit visible bacterial growth, was recorded.
(§4) After the MIC values were recorded, the contents in the microtiter trays were thoroughly mixed on a Bellco Mini-orbital Shaker (Bellco Glass Co.) for 3 min. at a setting of 8. A portion (0.0015 ml) from each well was then transferred via an MIC-2000 inoculator to plates containing MHA or BHI agar+10% NHS. The plates were incubated at 37° C. for 18-20 hrs. The minimal bactericidal concentration (MBC), defined as the lowest concentration of compound that prevented the formation of a recognizable colony on the agar surface, was recorded.

S. epidermidis 2-1-B = details: Staphylococcus epidermidis, 21B, S. epidermidis 2-1-B; for MBC: read-out: MBC; for MIC: read-out: MIC
Method: as §1, §2, §3, §4

S. aureus 4-81 = details: Staphylococcus aureus, 481, S. aureus 4-81; for MBC: read-out: MBC; for MIC: read-out: MIC
Method: as §1, §2, §3, §4

S. faecalis 4510 = details: Enterococcus faecalis, S. faecalis 4510; for MBC: read-out: MBC; for MIC: read-out: MIC
Method: as §1, §2, §3, §4

S. aureus (25923) = details: Staphylococcus aureus, ATCC25923, S. aureus ATCC No. 25923; for MBC: read-out: MBC; for MIC: read-out: MIC
Method: as §1, §2, §3, §4

S. aureus 21-81A = details: Staphylococcus aureus, 2181A, S. aureus 21-81A; for MBC: read-out: MBC; for MIC: read-out: MIC
Method: as §1, §2, §3, §4

S. faecalis (11700) = details: Enterococcus faecalis, ATCC11700, S. faecalis ATCC No. 11700; for MBC: read-out: MBC; for MIC: read-out: MIC
Method: as §1, §2, §3, §4

S. epidermidis 1-3-H = details: Staphylococcus epidermidis, 13H, S. epidermidis 1-3-H; for MBC: read-out: MBC; for MIC: read-out: MIC
Method: as §1, §2, §3, §4

S. pneumoniae Type III = details: for MBC / MIC: Streptococcus pneumoniae, S. pneumoniae Type III; for MBC: read-out: MBC; for MIC: read-out: MIC
Method: as §1, §2, §3, §4

S. aureus 59-81 = details: Staphylococcus aureus, 5981, S. aureus 59-81; for MBC: read-out: MBC; for MIC: read-out: MIC
Method: as §1, §2, §3, §4

S. aureus S-500 = details: Staphylococcus aureus, S500, S. aureus S-500; for MBC: read-out: MBC; for MIC: read-out: MIC
Method: as §1, §2, §3, §4

S. pyogenes (89) = details: Streptococcus pyogenes, S. pyogenes SWRI No. 89; for MBC: read-out: MBC; for MIC: read-out: MIC
Method: as §1, §2, §3, §4

S. aureus Glorgio = details: Staphylococcus aureus, S. aureus Glorgio; for MBC: read-out: MBC; for MIC: read-out: MIC
Method: as §1, §2, §3, §4

S. aureus Smith = details: Staphylococcus aureus, S. aureus Smith; for MBC: read-out: MBC; for MIC: read-out: MIC
Method: as §1, §2, §3, §4

S. aureus 24-81 = details: Staphylococcus aureus, 2481, S. aureus 24-81; for MBC: read-out: MBC; for MIC: read-out: MIC
Method: as §1, §2, §3, §4

S. aureus S-234 = details: Staphylococcus aureus, S234, S. aureus S-234; for MBC: read-out: MBC; for MIC: read-out: MIC
Method: as §1, §2, §3, §4

S. aureus 41-81 = details: Staphylococcus aureus, 4181, S. aureus 41-81; for MBC: read-out: MBC; for MIC: read-out: MIC
Method: as §1, §2, §3, §4

S. pyogenes C203 = details: Streptococcus pyogenes, S. pyogenes C203; for MBC: read-out: MBC; for MIC: read-out: MIC
Method: as §1, §2, §3, §4

S. epidermidis 1-5-H = details: Staphylococcus epidermidis, 15H, S. epidermidis 1-5-H; for MBC: read-out: MBC; for MIC: read-out: MIC
Method: as §1, §2, §3, §4

S. epidermidis (12228) = details: Staphylococcus epidermidis, ATCC12228, S. epidermidis ATCC No. 12228; for MBC: read-out: MBC; for MIC: read-out: MIC
Method: as §1, §2, §3, §4

S. epidermidis (17917) = details: Staphylococcus epidermidis, ATCC17917, S. epidermidis ATCC No. 17917; for MBC: read-out: MBC; for MIC: read-out: MIC
Method: as §1, §2, §3, §4

S. aureus 39881 = details: Staphylococcus aureus, S. aureus 39881; for MBC: read-out: MBC; for MIC: read-out: MIC
Method: as §1, §2, §3, §4

CCn1cc(C(=O)O)c(=O)c2ccc(-c3cc(C)nc(C)c3)cc21 [Win 35,439, 1-ethyl-1,4-dihydro-7-(2,6-dimethyl-4-pyridinyl)-4-oxo-3-quinolinecarboxylic acid]
MBC (S. pyogenes 7948-15): > 16 µg/mL
MIC (S. pyogenes 7948-15): 4 µg/mL (≈ 12.4 µM)
MBC (S. epidermidis 2-1-B): 0.25 µg/mL (≈ 0.776 µM)
MIC (S. epidermidis 2-1-B): 0.25 µg/mL (≈ 0.776 µM)
MBC (S. aureus 4-81): 0.125 µg/mL (≈ 0.388 µM)
MIC (S. aureus 4-81): 0.06 µg/mL (≈ 0.186 µM)
MBC (S. faecalis 4510): 0.5 µg/mL (≈ 1.55 µM)
MIC (S. faecalis 4510): 0.5 µg/mL (≈ 1.55 µM)
MBC (S. aureus (25923)): 0.125 µg/mL (≈ 0.388 µM)
MIC (S. aureus (25923)): 0.125 µg/mL (≈ 0.388 µM)
MBC (S. aureus 21-81A): 0.125 µg/mL (≈ 0.388 µM)
MIC (S. aureus 21-81A): 0.06 µg/mL (≈ 0.186 µM)
MBC (S. faecalis (11700)): 1 µg/mL (≈ 3.1 µM)
MIC (S. faecalis (11700)): 1 µg/mL (≈ 3.1 µM)
MBC (S. epidermidis 1-3-H): 0.25 µg/mL (≈ 0.776 µM)
MIC (S. epidermidis 1-3-H): 0.25 µg/mL (≈ 0.776 µM)
MBC (S. pneumoniae Type III): 4 µg/mL (≈ 12.4 µM)
MIC (S. pneumoniae Type III): 4 µg/mL (≈ 12.4 µM)
MBC (S. aureus 59-81): 0.25 µg/mL (≈ 0.776 µM)
MIC (S. aureus 59-81): 0.125 µg/mL (≈ 0.388 µM)
MBC (S. aureus S-500): 0.25 µg/mL (≈ 0.776 µM)
MIC (S. aureus S-500): 0.125 µg/mL (≈ 0.388 µM)
MBC (S. pyogenes (89)): > 16 µg/mL
MIC (S. pyogenes (89)): 4 µg/mL (≈ 12.4 µM)
MBC (S. aureus Glorgio): 0.125 µg/mL (≈ 0.388 µM)
MIC (S. aureus Glorgio): 0.03 µg/mL (≈ 0.0931 µM)
MBC (S. aureus Smith): 0.125 µg/mL (≈ 0.388 µM)
MIC (S. aureus Smith): 0.125 µg/mL (≈ 0.388 µM)
MBC (S. aureus 24-81): 0.125 µg/mL (≈ 0.388 µM)
MIC (S. aureus 24-81): 0.06 µg/mL (≈ 0.186 µM)
MBC (S. aureus S-234): 0.125 µg/mL (≈ 0.388 µM)
MIC (S. aureus S-234): 0.06 µg/mL (≈ 0.186 µM)
MBC (S. aureus 41-81): 0.25 µg/mL (≈ 0.776 µM)
MIC (S. aureus 41-81): 0.06 µg/mL (≈ 0.186 µM)
MBC (S. pyogenes C203): > 16 µg/mL
MIC (S. pyogenes C203): 4 µg/mL (≈ 12.4 µM)
MBC (S. epidermidis 1-5-H): 0.25 µg/mL (≈ 0.776 µM)
MIC (S. epidermidis 1-5-H): 0.25 µg/mL (≈ 0.776 µM)
MBC (S. epidermidis (12228)): 0.25 µg/mL (≈ 0.776 µM)
MIC (S. epidermidis (12228)): 0.25 µg/mL (≈ 0.776 µM)
MBC (S. epidermidis (17917)): 0.5 µg/mL (≈ 1.55 µM)
MIC (S. epidermidis (17917)): 0.5 µg/mL (≈ 1.55 µM)
MBC (S. aureus 39881): 0.06 µg/mL (≈ 0.186 µM)
MIC (S. aureus 39881): 0.06 µg/mL (≈ 0.186 µM)

CCn1cc(C(=O)O)c(=O)c2cc(F)c(-c3cc(C)nc(C)c3)cc21 [Win 52,522, 1-ethyl-6-fluoro-1,4-dihydro-7-(2,6-dimethyl-4-pyridinyl)-4-oxo-3-quinolinecarboxylic acid]
MBC (S. pyogenes 7948-15): 0.5 µg/mL (≈ 1.47 µM)
MIC (S. pyogenes 7948-15): 0.5 µg/mL (≈ 1.47 µM)
MBC (S. epidermidis 2-1-B): 0.03 µg/mL (≈ 0.0881 µM)
MIC (S. epidermidis 2-1-B): 0.03 µg/mL (≈ 0.0881 µM)
MBC (S. aureus 4-81): 0.03 µg/mL (≈ 0.0881 µM)
MIC (S. aureus 4-81): 0.015 µg/mL (≈ 0.0441 µM)
MBC (S. faecalis 4510): 0.125 µg/mL (≈ 0.367 µM)
MIC (S. faecalis 4510): 0.125 µg/mL (≈ 0.367 µM)
MBC (S. aureus (25923)): 0.03 µg/mL (≈ 0.0881 µM)
MIC (S. aureus (25923)): 0.015 µg/mL (≈ 0.0441 µM)
MBC (S. aureus 21-81A): 0.015 µg/mL (≈ 0.0441 µM)
MIC (S. aureus 21-81A): 0.015 µg/mL (≈ 0.0441 µM)
MBC (S. faecalis (11700)): 0.25 µg/mL (≈ 0.735 µM)
MIC (S. faecalis (11700)): 0.25 µg/mL (≈ 0.735 µM)
MBC (S. epidermidis 1-3-H): 0.06 µg/mL (≈ 0.176 µM)
MIC (S. epidermidis 1-3-H): 0.06 µg/mL (≈ 0.176 µM)
MBC (S. pneumoniae Type III): 0.5 µg/mL (≈ 1.47 µM)
MIC (S. pneumoniae Type III): 0.5 µg/mL (≈ 1.47 µM)
times less potent than vancomycin (S. pneumoniae Type III; in vitro, S. pneumoniae type III): 8 times
MBC (S. aureus 59-81): 0.03 µg/mL (≈ 0.0881 µM)
MIC (S. aureus 59-81): 0.015 µg/mL (≈ 0.0441 µM)
MBC (S. aureus S-500): 0.06 µg/mL (≈ 0.176 µM)
MIC (S. aureus S-500): 0.03 µg/mL (≈ 0.0881 µM)
MBC (S. pyogenes (89)): 0.5 µg/mL (≈ 1.47 µM)
MIC (S. pyogenes (89)): 0.5 µg/mL (≈ 1.47 µM)
MBC (S. aureus Glorgio): 0.015 µg/mL (≈ 0.0441 µM)
MIC (S. aureus Glorgio): < 0.008 µg/mL
MBC (S. aureus Smith): 0.03 µg/mL (≈ 0.0881 µM)
MIC (S. aureus Smith): 0.03 µg/mL (≈ 0.0881 µM)
MBC (S. aureus 24-81): 0.03 µg/mL (≈ 0.0881 µM)
MIC (S. aureus 24-81): 0.015 µg/mL (≈ 0.0441 µM)
MBC (S. aureus S-234): 0.03 µg/mL (≈ 0.0881 µM)
MIC (S. aureus S-234): 0.015 µg/mL (≈ 0.0441 µM)
MBC (S. aureus 41-81): 0.015 µg/mL (≈ 0.0441 µM)
MIC (S. aureus 41-81): 0.015 µg/mL (≈ 0.0441 µM)
MBC (S. pyogenes C203): 0.5 µg/mL (≈ 1.47 µM)
MIC (S. pyogenes C203): 0.5 µg/mL (≈ 1.47 µM)
MBC (S. epidermidis 1-5-H): 0.06 µg/mL (≈ 0.176 µM)
MIC (S. epidermidis 1-5-H): 0.06 µg/mL (≈ 0.176 µM)
MBC (S. epidermidis (12228)): 0.06 µg/mL (≈ 0.176 µM)
MIC (S. epidermidis (12228)): 0.06 µg/mL (≈ 0.176 µM)
MBC (S. epidermidis (17917)): 0.125 µg/mL (≈ 0.367 µM)
MIC (S. epidermidis (17917)): 0.06 µg/mL (≈ 0.176 µM)
MBC (S. aureus 39881): 0.03 µg/mL (≈ 0.0881 µM)
MIC (S. aureus 39881): 0.015 µg/mL (≈ 0.0441 µM)

From patent publication US4698350A, “1-ethyl-6-fluoro-1,4-dihydro- 7-(2,6-dimethyl-4-pyridinyl)-4-oxo-3-quinolinecarboxylic acid and antibacterial use thereof” (Sterling Drug Inc., priority 1984, dated 1987)
